# Patent US4343807A, “Derivatives of clavulanic acid, a process for their preparation and their use” (Beecham Group Limited, priority 1979, dated 1982)
# What was measured:
# Type in all cases: cell-based
# Staph. aureus Oxford = test: Antibacterial activity, MIC (dilution in blood agar-heavy inoculum); settings: Staphylococcus aureus
# Text: (§1) Antibacterial activity of 9-N-[3'-N-(2"-pyrrolidinonyl)propyl]aminodeoxyclavulanic acid
# (§2) Dilution in blood agar-heavy inoculum
# Strep. pyogenes = test: as above; settings: Streptococcus pyogenes
# Text: as §1, §2
# Strep. pneumoniae = test: as above; settings: Streptococcus pneumoniae
# Text: as §1, §2
# Staph. Aureus Russell [1] = test: as above; settings: Staphylococcus aureus
# Text: as §1, §2
# Kleb Aergenes E70 = test: MIC by standard microtitre technique (dilution in tryptone soy broth); settings: Klebsiella aerogenes, substance alone
# Experimental: (§3) By a standard microtitre technique the MIC values for ampicillin alone, ampicillin and 9-N-(2-N-morpholinoethyl)aminodeoxyclavulanic acid and 9-N-(2-N-morpholinoethyl)aminodeoxyclavulanic acid alone were determined.
# (§4) MIC μg/ml (dilution in tryptone soy broth)
# (§5) By a standard microtitre technique the MIC values for ampicillin alone, ampicillin and 9-N-[3'-N-(2"-pyrrolidinoyl)propyl]aminodeoxyclavulanic acid and 9-N[3'-N-(2"-pyrrolidinoyl)propyl]aminodeoxyclavulanic acid alone were determined.
# E. Coli JT39 = test: as above; settings: Escherichia coli, substance alone
# Experimental: as §3, §4, §5
# Staph. Aureus Russell [2] = test: as above; settings: Staphylococcus aureus, substance alone
# Experimental: as §3, §4, §5
SMILES,MIC (Staph. aureus Oxford) [µg/mL],MIC (Strep. pyogenes) [µg/mL],MIC (Strep. pneumoniae) [µg/mL],MIC (Staph. Aureus Russell [1]) [µg/mL],MIC (Kleb Aergenes E70) [µg/mL],MIC (E. Coli JT39) [µg/mL],MIC (Staph. Aureus Russell [2]) [µg/mL]
"O=C(O)[C@H]1/C(=C/CNCCCN2CCCC2=O)O[C@@H]2CC(=O)N21 [Example 2, 9-N[3'-N-(2""-Pyrrolidinonyl)propyl]aminodeoxyclavulanic acid]",5,1.25,5,5,500,62,16
"O=C(O)[C@H]1/C(=C/CNCCN2CCOCC2)O[C@@H]2CC(=O)N21 [Example 1, 9-N-(2'-N-Morpholinoethyl)aminodeoxyclavulanic acid]",–,–,–,–,500,62,16
"CC1(C)S[C@@H]2[C@H](NC(=O)[C@H](N)c3ccccc3)C(=O)N2[C@H]1C(=O)O [Ampicillin, reference compound]",–,–,–,–,1000,> 2000,1000
